How the values were obtained:
human skin = assay: Delivery of Curcumin into human skin by Multi-Photon Microscopy (Example 4); assay type: in vivo; details: 0.5% w/w in mineral oil, one hour, volar forearm
Excerpt: • 1) Mineral oil and a solution of Curcumin in mineral oil (0.5% w/w). • 2) 35 mm×35 mm segments of ETP008 and ETP012 magnetic materials; ETP008 being a parallel linear array of common pole pairs of 450 gauss peak flux with a centre to centre spatial separation of 4 mm; ETP012 being an oriented displaced dipolar magnetic element array created by drawing a secondary flux pattern over a linear pattern comprising 2.0 mm poles, creating a pair of displaced dipolar magnetic elements of pitch of 2.5 pairs per centimeter, with the inter-pair flux gradient being 700 gauss or 1750 gauss per centimeter and the secondary field elements being oriented at 90 degrees to the primary and consisting of parallel pairs of displaced dipolar magnetic elements of pitch of 1.5 mm, creating 3.5 pairs per centimeter, with 300 gauss per centimeter oriented flux. • 3) 35 mm×35 mm segments of a “passive” non-magnetic material which is identical to the active materials in all respects except for the presence of the magnetic field. • 4) Six healthy human subjects between the ages of 20 and 40. • 5) Multi-Photon Microscopy apparatus and computer software capable of processing Multi-Photon microscopy images. […]

human epidermal tissues = assay: Time dependent epidermal thickness change after 5% Urea gel, four magnetic array configurations vs passive (Example 3); assay type: in vivo; details: 30 and 60 minutes
Protocol: As a further example, an additional experiment was undertaken to explore the time dependent changes in measured epidermal thickness using four different configurations of the present invention when compared to passive application.
As in previous examples, all test areas of skin were treated using a 5% Urea gel formation and occluded with Parafilm. The urea and occlusive dressings were removed at 30 minutes and 60 minutes to allow measurements to be taken, with the urea and dressing being immediately replaced after the 30 minute test. Four different arrangements of the pairs of displaced magnetic dipolar elements present invention were studied to elucidate the complex relationship between enhanced delivery to human skin and the specific arrangements of the pairs of displaced dipolar elements that make up the present invention.
The four arrangements of pairs of displaced dipolar elements used in this experiment were as follows:
Type ETP000 was a form of the present invention is which a parallel linear array of common pole pairs of 250 gauss peak flux with a centre to centre spatial separation of 2 mm.
Type ETP006 was a combination of two intersecting parallel linear common pole arrays at 90 degrees orientation to each other having a peak magnetic flux of 300 gauss and a spatial separation between pairs of 3.5 mm.
Type ETP008 was a parallel linear array of common pole pairs of 450 gauss peak flux with a centre to centre spatial separation of 4 mm.
Type ETP011 was a combination of two intersecting parallel linear common pole arrays at 90 degrees orientation to each other having a peak magnetic flux of 150 gauss and a spatial separation between pairs of 3 mm.
The segment marked Passive indicted the normal changes in epidermal thickness in response to topical and occluded application of a Urea Gel. This is considered the control.

human epidermis [1] = assay: Time dependent epidermal thickness change by OCT after Urea, two magnetic array types vs passive (Example 2); assay type: in vivo; details: for increase in epidermal thickness: passive regions
Excerpt: In a further in vivo experience, two examples of arrays comprising pairs of displaced magnetic dipolar elements of the present invention were studied to illustrate the essential requirement for the pairs of displaced magnetic dipolar elements to be correctly configured to the diamagnetic property of the active ingredient to be delivered, in addition to the dielectric properties of the target receptor barrier.
Urea was applied to skin in a similar manner to Example 1. The urea and occlusive dressings were removed at 10 minute time periods to take measurements using OTC, with the urea and occlusive dressing being immediately replaced after each set of measurements. Each site was imaged in triplicate for each time point (i.e. three sites, triplicate images, seven time points). The laser images were then analysed to determine the differential change in skin morphology in response to the penetration of urea into facial skin under the influence of two different configurations of the present invention. FIG. 12 summaries this experiment, with the thickness of the epidermis provided next to the image.
Magnetic array Type ETP000 is a magnetic array in which a parallel linear array of common pole pairs of 250 gauss peak flux with a centre to centre spatial separation of 2 mm. Magnetic array Type ETP008 is a parallel linear array of common pole pairs of 450 gauss peak flux with a centre to centre spatial separation of 4 mm.

human epidermis [2] = assay: In vitro diffusion of urea across human epidermal membranes in Franz-type cells (Example 5); assay type: in vitro ADME; details: 5% urea gel
Excerpt: • 1) 5% w/w urea in VersaBase Gel (PCCA, Huston, Tex.). • 2) 11 mm diameter discs of flexible magnetic array matrix (ETP008) material and “passive” non-magnetic material which are identical to the active materials in all respects except for the presence of the magnetic field. • 3) Passive occlusive material consisting of a polymer film of similar thickness and cut to the same dimensions as the active magnetic polymer material. • 4) Epidermal membranes obtained from human skin sourced from abdominal region following abdominoplasty surgery. • 5) Pyrex glass Franz-type diffusion cells (enabling permeation across epidermal membranes of cross sectional area approximately 1.18 cm^2); receptor volume approximately 3.5 mL. • 6) Phosphate buffered saline (PBS). • 7) Thermostatted water bath with magnetic stirring capability. • 8) DMAB reagent (4% w/v) prepared with conc. sulphuric acid (4% v/v) in alcohol (95%). • 9) Digital portable LCR meter (TH2821/A/B, Changzhou Tonghui Electronic Co., Ltd, China). Method Preparation of Epidermal Membranes
Epidermal membranes were obtained by the heat separation method (Kligman & Christophers, 1963 Preparation of isolated sheets of human stratum corneum. Arch. Dermatol. 88: 70-73).
• 1) The membrane was placed between the donor and receptor compartment of the cell and allowed to equilibrate for 1 h with PBS in the receptor compartment which was stirred continuously with a magnetic stirrer. • 2) PBS was placed in the donor (1 mL) and receptor (approx. 3.5 mL) compartments of the cell which were then placed in a water bath maintained at 37±0.5° C. • 3) Epidermal membrane integrity was determined by visual inspection over a bright light and electrical resistance (kΩ) measurements using a digital portable LCR meter (TH2821/A/B, Changzhou Tonghui Electronic Co., Ltd, China). The measurements were taken by immersing the stainless steel probe lead tips, one each in the donor and receptor compartments (Fasano et al, 2002 Rapid integrity assessment of rat and human epidermal membranes for in vitro dermal regulatory testing: correlation of electrical resistance with tritiated water permeability. Toxicol. In Vitro 16: 731-40). […] Spectroscopic Analyses:
Urea quantification was based on the analytical method of Knorst et al 1997 (Analytical methods for measuring urea in pharmaceutical formulations. J. Pharm. Biomed. Anal. 15: 1627-32), a modified derivatisation by p-dimethylaminobenzaldehyde (DMAB) to convert urea into a coloured compound.
Derivatisation of urea in skin diffusate employed equal volumes of sample solution and the DMAB reagent (4% w/v) which was prepared with conc. sulphuric acid (4% v/v) in alcohol (95%). In this case 200 μL of the urea sample was mixed with 200 μL of the DMAB reagent. After 10 min the absorbance of the coloured derivatised solution was measured at 420 nm using a UVmini-1240 UV-Vis spectrophotometer (Shimadzu Scientific Instruments) against an appropriate reagent blank (receptor solution processed as for skin permeation receptor solution samples). Spectrophotometric analysis was carried out for quantitative analysis of urea that permeated the skin. […] The limit of detection (LOD) and limit of quantitation (LOQ) of the assay were 0.83 and 2.5 μg/mL respectively.
The results were compiled from nine cells containing the magnetic array film and eight control cells containing the passive non-magnetic film. A comparison of the cumulative amount of urea penetrating the epidermis to the receptor solution (μg/cm^2) versus time (mins) was plotted for passive and magnetic array enhanced applications (FIG. 16).

| SMILES | Curcumin concentrations in the skin compared with passive material (human skin; ETP008 magnetic material) | Curcumin concentrations in the skin compared with passive material (human skin; ETP012 magnetic material) | penetration (changes in epidermal thickness) compared to passive (human epidermal tissues; Type 011 arrangement, 5% Urea gel) | penetration (changes in epidermal thickness) compared to passive (human epidermal tissues; Type ETP000, 5% Urea gel) | penetration (changes in epidermal thickness) compared to passive (human epidermal tissues; Type ETP006, 5% Urea gel) | penetration (changes in epidermal thickness) compared to passive (human epidermal tissues; Type ETP008, 5% Urea gel) | epidermal thickness change (human epidermis [1]; Magnetic array Type ETP000, 30 minutes) [%] | epidermal thickness change (human epidermis [1]; Magnetic array Type ETP000, 60 minutes) [%] | epidermal thickness change (human epidermis [1]; Magnetic array Type ETP008, 30 minutes) [%] | epidermal thickness change (human epidermis [1]; Magnetic array Type ETP008, 60 minutes) [%] | increase in epidermal thickness (human epidermis [1]; 30 minutes) [%] | increase in epidermal thickness (human epidermis [1]; 60 minutes) [%] | mean cumulative permeation over 2 h (human epidermis [2]; magnetic array material ETP008, mean±sem) [μg/cm^2] | lag time (human epidermis [2]; magnetic film array ETP008) [min] | steady state flux (human epidermis [2]; magnetic film array ETP008) [μg/cm^2·min] | lag time (human epidermis [2]; non-magnetic passive material) [min] | steady state flux (human epidermis [2]; non-magnetic passive material) [μg/cm^2·min] | mean cumulative permeation over 2 h (human epidermis [2]; non-magnetic passive material, mean±sem) [μg/cm^2] |
| --- | --- | --- | --- | --- | --- | --- | --- | --- | --- | --- | --- | --- | --- | --- | --- | --- | --- | --- |
| COc1cc(/C=C/C(=O)CC(=O)/C=C/c2ccc(O)c(OC)c2)ccc1O [Curcumin] | significant increase | significant increase |  |  |  |  |  |  |  |  |  |  |  |  |  |  |  |  |
| NC(N)=O [Urea] |  |  | decreasing normal penetration | enhanced penetrations to different degrees over time | enhanced penetrations to different degrees over time | enhanced penetrations to different degrees over time | 119.5 | 113.25 | 112.6 | 118 | 103.2 | 110 | 89.54±7.34 | 21.13 ± 6.27 | 0.75±0.06 | 40.58 ± 3.98 | 0.24±0.03 | 20.83±2.02 |

Reference: patent US9463330B2, “Delivery of skin care products” (INTERNATIONAL SCIENTIFIC PTY LTD, priority 2010, dated 2016)
